Experimental data reported in PubChem BioAssay AID2321 (Johns Hopkins Ion Channel Center, 2010).
Calls of active or inactive are those of the source. How the calls were made is not given here.

Target: Voltage-gated inwardly rectifying potassium channel KCNH2 (Homo sapiens) (UniProt Q12809)
Test: relief of dofetilide hERG inhibition by whole-cell recording – manual patch clamp, HEK293-hERG, orthogonal assay, late-stage follow-up (AID 2321)
Details: dofetilide block rescue, at 10 µM, stronger effect = higher value

Chain of Voltage-gated inwardly rectifying potassium channel KCNH2 (Homo sapiens) (Q12809 whole entry, looked up): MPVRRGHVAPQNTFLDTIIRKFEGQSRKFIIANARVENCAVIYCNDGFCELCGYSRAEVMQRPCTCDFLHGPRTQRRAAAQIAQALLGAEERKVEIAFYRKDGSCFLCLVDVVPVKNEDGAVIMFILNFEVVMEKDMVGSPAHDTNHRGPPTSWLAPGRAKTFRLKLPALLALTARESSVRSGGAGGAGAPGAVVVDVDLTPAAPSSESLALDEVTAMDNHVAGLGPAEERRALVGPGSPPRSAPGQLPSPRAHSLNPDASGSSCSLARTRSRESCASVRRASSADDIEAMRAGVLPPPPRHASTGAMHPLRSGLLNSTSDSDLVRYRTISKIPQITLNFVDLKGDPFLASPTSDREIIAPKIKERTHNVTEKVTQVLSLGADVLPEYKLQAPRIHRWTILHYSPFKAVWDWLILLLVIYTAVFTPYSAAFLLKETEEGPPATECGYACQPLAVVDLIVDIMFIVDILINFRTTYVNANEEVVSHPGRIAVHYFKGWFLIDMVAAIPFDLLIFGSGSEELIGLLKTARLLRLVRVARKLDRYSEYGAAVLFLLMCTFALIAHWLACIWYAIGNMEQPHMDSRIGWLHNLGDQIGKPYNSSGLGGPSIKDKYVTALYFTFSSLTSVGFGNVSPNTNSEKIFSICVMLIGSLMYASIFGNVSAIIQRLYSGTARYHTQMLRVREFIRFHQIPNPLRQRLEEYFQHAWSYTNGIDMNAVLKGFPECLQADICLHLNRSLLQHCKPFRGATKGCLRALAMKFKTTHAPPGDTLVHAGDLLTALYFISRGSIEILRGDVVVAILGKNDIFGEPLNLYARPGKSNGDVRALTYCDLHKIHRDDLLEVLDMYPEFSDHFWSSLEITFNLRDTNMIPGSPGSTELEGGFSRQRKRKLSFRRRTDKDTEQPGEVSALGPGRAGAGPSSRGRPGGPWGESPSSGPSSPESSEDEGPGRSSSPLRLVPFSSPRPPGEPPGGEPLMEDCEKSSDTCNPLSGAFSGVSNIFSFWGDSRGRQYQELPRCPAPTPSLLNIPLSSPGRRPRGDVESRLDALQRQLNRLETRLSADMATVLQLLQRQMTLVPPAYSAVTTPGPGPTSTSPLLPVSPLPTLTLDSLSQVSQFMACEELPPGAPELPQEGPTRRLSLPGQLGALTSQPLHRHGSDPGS

## O=C(COc1ccc2ccccc2c1Br)Nc1cccnc1
  percent unblocked: 0% (inactive)

## O=C(O)c1ccc(Nc2nc3cc(Cl)ccc3o2)cc1
  percent unblocked: 0% (inactive)

## COc1ccccc1NC(=S)NC(=O)c1ccc(-c2ccc(Cl)cc2)o1
  percent unblocked: 0% (inactive)

## Clc1ccc2oc(Nc3ccccn3)nc2c1
  percent unblocked: 0% (inactive)

## COc1ccc(OC)c(NC(=S)NC(=O)c2ccc(Br)o2)c1
  percent unblocked: 0% (inactive)

## O=C(O)c1ccccc1Nc1nc2cc(Cl)ccc2o1
  percent unblocked: 0% (inactive)

## CN(c1ccccc1)c1nc2cc(Cl)ccc2o1
  percent unblocked: 0% (inactive)

## O=C(O)c1cc(Cl)ccc1Nc1nc2cc(Cl)ccc2o1
  percent unblocked: 0% (inactive)

## Cc1ccc(C(=O)Nc2nc3ccccc3c(=O)s2)cc1
  percent unblocked: 0% (inactive)
